In patent US20250144107A1, “USE OF A PIKFYVE INHIBITOR IN COMBINATION WITH IMMUNOTHERAPY” (The Regents of the University of Michigan, priority 2023, published 2025):

What was measured:
B16-BL6 melanoma model = experiment: B16-BL6 lung metastasis model after removal of primary tumors; type: in vivo, mice; conditions: for efficacy of ICB to inhibit metastasis: combination with ICB (anti-PD-1 plus anti-CTLA-4); for lung metastasis: treatment alone
Description: FIG. 8A (Left) is a box plot of tumor volume of the efficacy of immune checkpoint inhibitors in combination with apilimod or ESK981 treatment against metastasis in a subcutaneous B16BL6 tumor; (Middle) is a series of 12 images of the efficacy of immune checkpoint inhibitors in combination with apilimod or ESK981 treatment against metastasis in a subcutaneous B16BL6 tumor; (Right) is a box plot of the counts of lung tumor metastasis treated with immune checkpoint inhibitors in combination with apilimod or ESK981.
(§1) All experimental protocols were conducted after approval by the U-M Institutional Animal Care & Use Committee. […] KPC1361 cells were resuspended in PBS, 1:1 (v/v) mixed with Matrigel (BD Biosciences; catalog #: 354248), and orthotopically injected to the pancreases at 250,000 cells in a total volume of 50 μl per injection. B16-F10 cells were resuspended in PBS and injected subcutaneously to both flanks at 400,000 cells per injection. For ACT study, B16-F10-OVA cells were resuspended in PBS and injected subcutaneously to both flanks at 300,000 cells per injection. For lung metastasis experiment, B16-BL6 cells were resuspended in PBS, 1:1 (v/v) mixed with Matrigel and injected subcutaneously to both flanks at 400,000 cells per injection. Fifteen days after tumor cell inoculation, the primary tumors were removed surgically under anesthesia. Thirty-five days after removal of the primary tumors, lung tissues were extracted and fixed, and lung metastasis was quantified. C57BL/6 mice were acquired from The Jackson Laboratory. Measurement of tumor volume began 5-9 days post tumor cell implantation and was performed 2-3 times per week using calipers. Volume measurements of pancreatic tumors were also achieved with calipers, as reported See, e.g., Koikawa, K. et al., Cell 2021; 184(18):4753-4771. In brief, mice were subjected to anesthesia with 2-3% isoflurane, and the abdominal wall then became soft and loose. The mouse was next held with the left hand allowing for the palpation and assessment of the firm pancreatic tumor mass with the right hand. […] Volume (mm^3) of tumor was calculated using (W^2×L)/2, where W stood for minor tumor axis and L for the major. All mice were maintained in a pathogen-free condition, with a 12-hour light/dark cycle.
(§2) For ICB treatment in KPC1361 pancreatic tumor-bearing mice, randomization was performed when tumors reached approximately 100 mm^3. For ACT and vaccine experiments, the mice were randomized when tumors reached approximately 35 mm^3. Anti-mouse PD-1 (clone RMP1-14) and its isotype control were purchased from BioXcell, administered intraperitoneally at 250 μg per mouse, biweekly. […]

[1] = test system: subcutaneous tumors derived from OVA-expressing B16-F10 cells; experiment: Adoptive cell therapy in subcutaneous B16-F10-OVA tumor model; type: in vivo, mice; conditions: combination with ACT
Description: FIG. 10A is an experimental timeline of the efficacy against subcutaneous ovalbumin-expressing B16-F10 (B16-F10-OVA) tumors treated with adoptive cell therapy (ACT) in combination with apilimod or ESK981.
FIG. 10B is a series of 6 line graphs showing the growth of subcutaneous ovalbumin-expressing B16-F10 (B16-F10-OVA) tumors treated with adoptive cell therapy (ACT) in combination with apilimod or ESK981.
FIG. 10C is a line graph of the survival of mice with subcutaneous ovalbumin-expressing B16-F10 (B16-F10-OVA) tumors treated with adoptive cell therapy (ACT) in combination with apilimod or ESK981.
as §1, §2

[2] = test system: cDCs co-cultured with OT-I and OT-II cells; experiment: cDC antigen presentation and OT-I/OT-II co-culture; type: cell-based, mice
Description: FIG. 13T is a box and whisker plot of the percentage of IFNγ^+ OT-I cells after 72 hours of co-culture with DMSO or apilimod pre-treated cDCs with or without sOVA, 10 μg/ml.
FIG. 13V is a box and whisker plot of the percentage of IFNγ^+ OT-II cells after 72 hours of co-culture with DMSO or apilimod pre-treated cDCs with or without sOVA, 10 μg/ml.
FIG. 19G is a line graph (Left) and box and whisker plot (Right) of relative median fluorescent intensity of surface H-2kb-SIINFEKL in DMSO or apilimod-treated cDCs with or without 12 hours of pOVA, 100 ng/ml, treatment.
FIG. 19H is a scatter plot (Left) and box and whisker plot (Right) of relative median fluorescent intensity of percent H2kb-SIINFEKL^+ cells in DMSO or apilimod-treated cDCs with or without 12 hours of pOVA, 100 ng/ml, treatment.
FIG. 20D is a scatter plot (Left) and box and whisker plot (Right) of percentage of IFNγ^+ OT-I cells after 48 hours of co-culture with DMSO or apilimod pre-treated cDCs with or without pOVA, 100 ng/ml.
FIG. 20E is a scatter plot (Left) and box and whisker plot (Right) of percentage of granzyme B^+ OT-I cells after 48 hours of co-culture with DMSO or apilimod pre-treated cDCs with or without pOVA, 100 ng/ml.
FIG. 20H is a box and whisker plot of the percent of Ki67^+ OT-I cells after 72 hours of co-culture with DMSO or apilimod pre-treated cDCs with or without sOVA, 10 μg/ml.
FIG. 20I is a box and whisker plot of the percent of Ki67^+ OT-II cells after 72 hours of co-culture with DMSO or apilimod pre-treated cDCs with or without sOVA, 10 μg/ml.

| SMILES | efficacy of ICB to inhibit metastasis (B16-BL6 melanoma model) | lung metastasis (B16-BL6 melanoma model) | efficacy of the ACT [1] | survival of the animals [1] | total intensity and percentage of cells with H2-kb-SIINFEKL surface expression ([2]; pOVA, vs DMSO) | T cell activation (IFNγ+ and granzyme B+ OT-I cells) ([2]; peptide antigen-loaded cDCs, vs DMSO) | percentages of Ki67+ and IFNγ+ OT-I cells ([2]; sOVA-loaded cDCs, vs DMSO) | percentages of Ki67+ and IFNγ+ OT-II cells ([2]; sOVA-loaded cDCs, vs control) |
| --- | --- | --- | --- | --- | --- | --- | --- | --- |
| CC(C)Cn1c2ccc(Nc3ncccn3)cc2c2c3c(c4c(c21)CCc1nn(C)cc1-4)C(=O)NC3 [ESK981, 13-isobutyl-4-methyl-10-(pyrimidin-2-ylamino)-1,2,4,7,8,13-hexahydro-6H-indazolo[5,4-a]pyrrolo[3,4-c]carbazol-6-one] | strongly enhanced | reduction of lung metastasis | strikingly enhanced | significantly extending survival |  |  |  |  |
| Cc1cccc(/C=N/Nc2cc(N3CCOCC3)nc(OCCc3ccccn3)n2)c1 [apilimod, N-[(E)-(3-methylphenyl)methylideneamino]-6-morpholin-4-yl-2-(2-pyridin-2-ylethoxy)pyrimidin-4-amine] | strongly enhanced | reduction of lung metastasis | strikingly enhanced | significantly extending survival | greater | increase | increases | higher percentages |
